Experimental data taken from US9518026B2, “5-aminopyrazole-4-carboxamide inhibitors of CDPK1 from T. gondii and C. parvum” (UNIVERSITY OF WASHINGTON THROUGH ITS CENTER FOR …, priority 2013, dated 2016).
Like-named read-outs stand apart in the source and are kept apart here.

How the values were obtained:
CpCDPK1 = CpCDPK1 (Cryptosporidium parvum (strain Iowa II), UniProt A3FQ16); assay: biochemical; details: Table 1; KinaseGlo, Syntide 2 peptide substrate; read-out: CpCDPK1 IC50
TgCDPK1 = TgCDPK1 (Toxoplasma gondii, UniProt Q9BJF5); assay: biochemical; details: read-out: TgCDPK1 IC50
Sequence of TgCDPK1 (Q9BJF5 1-507): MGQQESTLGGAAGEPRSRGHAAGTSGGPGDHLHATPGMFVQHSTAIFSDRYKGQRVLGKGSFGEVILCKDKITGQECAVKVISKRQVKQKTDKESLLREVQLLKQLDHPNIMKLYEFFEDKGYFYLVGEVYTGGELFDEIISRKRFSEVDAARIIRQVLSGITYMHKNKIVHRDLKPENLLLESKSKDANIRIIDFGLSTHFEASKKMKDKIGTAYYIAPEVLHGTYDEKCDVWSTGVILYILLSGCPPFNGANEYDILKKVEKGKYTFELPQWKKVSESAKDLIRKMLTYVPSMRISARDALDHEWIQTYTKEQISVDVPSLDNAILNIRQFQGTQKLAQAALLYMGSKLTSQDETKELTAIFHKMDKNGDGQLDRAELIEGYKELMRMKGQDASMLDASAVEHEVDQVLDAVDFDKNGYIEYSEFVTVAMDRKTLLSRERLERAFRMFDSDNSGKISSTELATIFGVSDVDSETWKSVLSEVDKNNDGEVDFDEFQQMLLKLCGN

[1] = Table 1, KinaseGlo, Syntide 2 peptide substrate

Sequence of CpCDPK1 (A3FQ16 1-538): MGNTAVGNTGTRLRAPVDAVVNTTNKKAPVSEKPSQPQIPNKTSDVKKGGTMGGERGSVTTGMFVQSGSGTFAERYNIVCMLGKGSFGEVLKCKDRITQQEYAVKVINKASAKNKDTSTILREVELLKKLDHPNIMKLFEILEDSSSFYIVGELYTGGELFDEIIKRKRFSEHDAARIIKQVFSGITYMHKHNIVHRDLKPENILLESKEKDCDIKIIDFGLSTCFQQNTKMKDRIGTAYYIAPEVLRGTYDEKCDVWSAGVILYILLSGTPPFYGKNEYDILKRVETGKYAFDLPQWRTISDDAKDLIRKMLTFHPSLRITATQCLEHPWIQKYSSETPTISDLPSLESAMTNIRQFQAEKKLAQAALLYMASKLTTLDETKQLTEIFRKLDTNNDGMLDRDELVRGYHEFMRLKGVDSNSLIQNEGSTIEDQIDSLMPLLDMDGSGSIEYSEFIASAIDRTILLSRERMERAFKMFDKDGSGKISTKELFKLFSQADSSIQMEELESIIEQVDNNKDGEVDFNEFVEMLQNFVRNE

## CCOc1ccc2cc(-c3nn(C(C)(C)C)c4ncnc(N)c34)ccc2c1 [Compound 4, 1-tert-butyl-3-(6-ethoxynaphthalen-2-yl)-1H-pyrazolo[3,4-d]pyrimidin-4-amine, reference compound]
CpCDPK1
  IC50: 43 nM

## NC(=O)c1c(-c2ccc3ccccc3c2)nn(CC2CCNCC2)c1N [Compound 6, 5-amino-3-(naphthalen-2-yl)-1-(piperidin-4-ylmethyl)-1H-pyrazole-4-carboxamide]
TgCDPK1
  IC50: 35 nM
CpCDPK1
  IC50: 64 nM

## Nc1ncnc2c1c(-c1ccc3ccccc3c1)nn2CC1CCNCC1 [Compound 7, 3-(naphthalen-2-yl)-1-(piperidin-4-ylmethyl)-1H-pyrazolo[3,4-d]pyrimidin-4-amine, reference compound]
CpCDPK1
  IC50: 1 nM

## CCOc1ccc2cc(-c3nn(CC4CCN(C)CC4)c(N)c3C(N)=O)ccc2c1 [Compound 8, 5-amino-3-(6-ethoxynaphthalen-2-yl)-1-((1-methylpiperidin-4-yl)methyl)-1H-pyrazole-4-carboxamide]
TgCDPK1
  IC50: 11 nM
CpCDPK1
  IC50: 9 nM

## COc1ccc2cc(-c3nn(CC4CCN(C)CC4)c(N)c3C(N)=O)ccc2c1 [Compound 10, 5-amino-3-(6-methoxynaphthalen-2-yl)-1-((1-methylpiperidin-4-yl)methyl)-1H-pyrazole-4-carboxamide]
TgCDPK1; [1]
  IC50: 35 nM
CpCDPK1
  IC50: 14 nM

## COc1ccc2cc(-c3n[nH]c(N)c3C(N)=O)ccc2c1 [Compound 11, 5-amino-3-(6-methoxynaphthalen-2-yl)-1H-pyrazole-4-carboxamide]
TgCDPK1
  IC50: 81 nM
CpCDPK1
  IC50: 48 nM

## CCn1nc(-c2ccc3ccccc3c2)c(C(N)=O)c1N [Compound 12, 5-amino-1-ethyl-3-(naphthalen-2-yl)-1H-pyrazole-4-carboxamide]
TgCDPK1
  IC50: 8 nM
CpCDPK1
  IC50: 11 nM

## CC(C)n1nc(-c2ccc3ccccc3c2)c(C(N)=O)c1N [Compound 13, 5-amino-1-isopropyl-3-(naphthalen-2-yl)-1H-pyrazole-4-carboxamide]
CpCDPK1
  IC50: 7 nM

## CC(C)Cn1nc(-c2ccc3ccccc3c2)c(C(N)=O)c1N [Compound 14, 5-amino-1-isobutyl-3-(naphthalen-2-yl)-1H-pyrazole-4-carboxamide]
CpCDPK1
  IC50: 16 nM

## NC(=O)c1c(-c2ccc3ccccc3c2)nn(CC2CC2)c1N [Compound 15, 5-amino-1-(cyclopropylmethyl)-3-(naphthalen-2-yl)-1H-pyrazole-4-carboxamide]
TgCDPK1
  IC50: 7 nM
CpCDPK1
  IC50: 10 nM

## NC(=O)c1c(-c2ccc3ccccc3c2)nn(CC2CCCCC2)c1N [Compound 16, 5-amino-1-(cyclohexylmethyl)-3-(naphthalen-2-yl)-1H-pyrazole-4-carboxamide]
TgCDPK1
  IC50: 59 nM
CpCDPK1
  IC50: 150 nM

## NC(=O)c1c(-c2ccc3ccccc3c2)nn(C2CCCCC2)c1N [Compound 17, 5-amino-1-cyclohexyl-3-(naphthalen-2-yl)-1H-pyrazole-4-carboxamide]
TgCDPK1
  IC50: 11 nM
CpCDPK1
  IC50: 16 nM

## CN1CCC(n2nc(-c3ccc4ccccc4c3)c(C(N)=O)c2N)CC1 [Compound 20, 5-amino-1-(1-methylpiperidin-4-yl)-3-(naphthalen-2-yl)-1H-pyrazole-4-carboxamide]
TgCDPK1
  IC50: 26 nM
CpCDPK1
  IC50: 13 nM

## CN1CCC(Cn2nc(-c3ccc4ccccc4c3)c(C(N)=O)c2N)CC1 [Compound 21, 5-amino-1-((1-methylpiperidin-4-yl)methyl)-3-(naphthalen-2-yl)-1H-pyrazole-4-carboxamide]
TgCDPK1
  IC50: 39 nM
CpCDPK1
  IC50: 17 nM

## NC(=O)c1c(-c2ccc3ccccc3c2)nn(CCO)c1N [Compound 22, 5-amino-1-(2-hydroxyethyl)-3-(naphthalen-2-yl)-1H-pyrazole-4-carboxamide]
TgCDPK1
  IC50: 15 nM
CpCDPK1
  IC50: 21 nM

## NC(=O)c1c(-c2ccc3ccccc3c2)nn(CCN2CCOCC2)c1N [Compound 23, 5-amino-1-(2-morpholinoethyl)-3-(naphthalen-2-yl)-1H-pyrazole-4-carboxamide]
TgCDPK1
  IC50: 5 nM
CpCDPK1
  IC50: 18 nM

## CC(C)(C)n1nc(-c2ccc3cc(O)ccc3c2)c(C(N)=O)c1N [Compound 24, 5-amino-1-(tert-butyl)-3-(6-hydroxynaphthalen-2-yl)-1H-pyrazole-4-carboxamide]
CpCDPK1
  IC50: 17 nM

## Cc1oc2ccccc2c1-c1nn(C(C)(C)C)c(N)c1C(N)=O [Compound 27, 5-amino-1-(tert-butyl)-3-(2-methylbenzofuran-3-yl)-1H-pyrazole-4-carboxamide]
TgCDPK1
  IC50: 710 nM

## Cn1nc(N)c2ccc(-c3nn(C(C)(C)C)cc3C(N)=O)cc21 [Compound 29, 3-(3-amino-1-methyl-1H-indazol-6-yl)-1-(tert-butyl)-1H-pyrazole-4-carboxamide]
TgCDPK1; [1]
  IC50: 17 nM

## Cn1ncc2cc(-c3nn(C(C)(C)C)c(N)c3C(N)=O)ccc21 [Compound 30, 5-amino-1-(tert-butyl)-3-(1-methyl-1H-indazol-5-yl)-1H-pyrazole-4-carboxamide]
TgCDPK1
  IC50: 32 nM
CpCDPK1
  IC50: 150 nM

## Cn1c(=O)[nH]c2cc(-c3nn(C(C)(C)C)c(N)c3C(N)=O)ccc21 [Compound 31, 5-amino-1-(tert-butyl)-3-(1-methyl-2-oxo-2,3-dihydro-1H-benzo[d]imidazol-5-yl)-1H-pyrazole-4-carboxamide]
TgCDPK1; [1]
  IC50: 640 nM
CpCDPK1
  IC50: > 3000 nM

## Cc1nc2cc(-c3nn(C(C)(C)C)c(N)c3C(N)=O)ccc2n1C [Compound 32, 5-amino-1-(tert-butyl)-3-(1,2-dimethyl-1H-benzo[d]imidazol-5-yl)-1H-pyrazole-4-carboxamide]
TgCDPK1; [1]
  IC50: > 3000 nM
CpCDPK1
  IC50: > 3000 nM

## Cn1c(N)nc2cc(-c3nn(C(C)(C)C)c(N)c3C(N)=O)ccc21 [Compound 33, 5-amino-3-(2-amino-1-methyl-1H-benzo[d]imidazol-5-yl)-1-(tert-butyl)-1H-pyrazole-4-carboxamide]
TgCDPK1
  IC50: 730 nM

## CC(C)(C)n1nc(-c2ccc3oc(=O)ccc3c2)c(C(N)=O)c1N [Compound 34, 5-amino-1-(tert-butyl)-3-(2-oxo-2H-chromen-6-yl)-1H-pyrazole-4-carboxamide]
TgCDPK1
  IC50: 32 nM
CpCDPK1
  IC50: 200 nM

## CC(C)(C)n1nc(-c2ccc3ccccc3n2)c(C(N)=O)c1N [Compound 35, 5-amino-1-(tert-butyl)-3-(quinolin-2-yl)-1H-pyrazole-4-carboxamide]
TgCDPK1
  IC50: 49 nM
CpCDPK1
  IC50: 290 nM

## CCOc1ccc2nc(-c3nn(C(C)(C)C)c(N)c3C(N)=O)ccc2c1 [Compound 36, 5-amino-1-(tert-butyl)-3-(6-ethoxyquinolin-2-yl)-1H-pyrazole-4-carboxamide]
TgCDPK1
  IC50: 350 nM
CpCDPK1
  IC50: 390 nM

## CC(C)(C)n1nc(-c2ccc3ncccc3c2)c(C(N)=O)c1N [Compound 37, 5-amino-1-(tert-butyl)-3-(quinolin-6-yl)-1H-pyrazole-4-carboxamide]
TgCDPK1
  IC50: 10 nM
CpCDPK1
  IC50: 70 nM

## CC(C)(C)n1nc(-c2cnc3cc(C(F)(F)F)ccc3c2)c(C(N)=O)c1N [Compound 1555, 5-amino-1-tert-butyl-3-(7-(trifluoromethyl)quinolin-3-yl)-1H-pyrazole-4-carboxamide]
CpCDPK1
  IC50: 222 nM

## CC(C)(C)n1nc(-c2cnc3cc(OC(F)(F)F)ccc3c2)c(C(N)=O)c1N [Compound 1565, 5-amino-1-tert-butyl-3-(7-(trifluoromethoxy)quinolin-3-yl)-1H-pyrazole-4-carboxamide]
TgCDPK1; [1]
  IC50: 31 nM
CpCDPK1
  IC50: 38 nM

## COCCOc1ccc2cc(-c3nn(C(C)(C)C)c(N)c3C(N)=O)cnc2c1 [Compound 1570, 5-amino-1-(tert-butyl)-3-(7-(2-methoxyethoxy)quinolin-3-yl)-1H-pyrazole-4-carboxamide]
TgCDPK1; [1]
  IC50: 258 nM
CpCDPK1
  IC50: 255 nM

## CCOc1ccc2cc(-c3nn(CC4CCCCC4)c(N)c3C(N)=O)cnc2c1 [Compound 1574, 5-amino-1-(cyclohexylmethyl)-3-(7-ethoxyquinolin-3-yl)-1H-pyrazole-4-carboxamide]
CpCDPK1
  IC50: 30 nM

## CCOc1ccc2cc(-c3nn(CC(F)(F)F)c(N)c3C(N)=O)cnc2c1 [Compound 1575, 5-amino-3-(7-ethoxyquinolin-3-yl)-1-(2,2,2-trifluoroethyl)-1H-pyrazole-4-carboxamide]
CpCDPK1
  IC50: 5 nM

## CCOc1ccc2cc(-c3nn(CCO)c(N)c3C(N)=O)cnc2c1 [Compound 1577, 5-amino-3-(7-ethoxyquinolin-3-yl)-1-(2-hydroxyethyl)-1H-pyrazole-4-carboxamide]
TgCDPK1; [1]
  IC50: 181 nM
CpCDPK1
  IC50: 89 nM

## CC(C)(C)n1nc(-c2cnc3cc(OCC4CC4)ccc3c2)c(C(N)=O)c1N [Compound 1585, 5-amino-1-(tert-butyl)-3-(7-(cyclopropylmethoxy)quinolin-3-yl)-1H-pyrazole-4-carboxamide]
CpCDPK1
  IC50: 9 nM

## CC(C)(C)n1nc(-c2cnc3cc(OC4CC4)ccc3c2)c(C(N)=O)c1N [Compound 1586, 5-amino-1-(tert-butyl)-3-(7-cyclopropoxyquinolin-3-yl)-1H-pyrazole-4-carboxamide]
CpCDPK1
  IC50: 5 nM

## CC(C)(C)COc1ccc2cc(-c3nn(C(C)(C)C)c(N)c3C(N)=O)cnc2c1 [Compound 1587, 5-amino-1-(tert-butyl)-3-(7-(neopentyloxy)quinolin-3-yl)-1H-pyrazole-4-carboxamide]
TgCDPK1; [1]
  IC50: 175 nM
CpCDPK1
  IC50: 490 nM

## CCc1ccc2cc(-c3nn(C(C)(C)C)c(N)c3C(N)=O)cnc2c1 [Compound 1592, 5-amino-1-(tert-butyl)-3-(7-ethylquinolin-3-yl)-1H-pyrazole-4-carboxamide]
CpCDPK1
  IC50: 85 nM

## CCOc1ccc2cc(-c3n[nH]c(N)c3C(N)=O)cnc2c1 [Compound 1593, 5-amino-3-(7-ethoxyquinolin-3-yl)-1H-pyrazole-4-carboxamide]
TgCDPK1; [1]
  IC50: 164 nM
CpCDPK1
  IC50: 67 nM

## CCOc1ccc2cc(-c3nn(C(C)C(C)C)c(N)c3C(N)=O)cnc2c1 (stereo not shown) [Compound 1628, 5-amino-3-(7-ethoxyquinolin-3-yl)-1-(3-methylbutan-2-yl)-1H-pyrazole-4-carboxamide]
CpCDPK1
  IC50: 5 nM

## CCOc1ccc2cc(-c3nn(C4CCOC4)c(N)c3C(N)=O)ccc2n1 (stereo not shown) [Compound 1634, 5-amino-3-(2-ethoxyquinolin-6-yl)-1-(tetrahydrofuran-3-yl)-1H-pyrazole-4-carboxamide]
CpCDPK1
  IC50: 3 nM
